Data from PMC10707737, “Indole Diterpene Derivatives from the Aspergillus flavus GZWMJZ-288, an Endophytic Fungus from Garcinia multiflora” (Molecules, 2023).
Entries after “also recorded” stand apart in the source; their conditions may differ.

These molecules were tested against T1, NPC1L1 (Homo sapiens, UniProt Q9UHC9) (assay: Combining ability test with NPC1L1 (SPR, Biacore)). Details: fixed concentration 10 μM; ezetimibe positive control.
T1 sequence (Q9UHC9 22-1359): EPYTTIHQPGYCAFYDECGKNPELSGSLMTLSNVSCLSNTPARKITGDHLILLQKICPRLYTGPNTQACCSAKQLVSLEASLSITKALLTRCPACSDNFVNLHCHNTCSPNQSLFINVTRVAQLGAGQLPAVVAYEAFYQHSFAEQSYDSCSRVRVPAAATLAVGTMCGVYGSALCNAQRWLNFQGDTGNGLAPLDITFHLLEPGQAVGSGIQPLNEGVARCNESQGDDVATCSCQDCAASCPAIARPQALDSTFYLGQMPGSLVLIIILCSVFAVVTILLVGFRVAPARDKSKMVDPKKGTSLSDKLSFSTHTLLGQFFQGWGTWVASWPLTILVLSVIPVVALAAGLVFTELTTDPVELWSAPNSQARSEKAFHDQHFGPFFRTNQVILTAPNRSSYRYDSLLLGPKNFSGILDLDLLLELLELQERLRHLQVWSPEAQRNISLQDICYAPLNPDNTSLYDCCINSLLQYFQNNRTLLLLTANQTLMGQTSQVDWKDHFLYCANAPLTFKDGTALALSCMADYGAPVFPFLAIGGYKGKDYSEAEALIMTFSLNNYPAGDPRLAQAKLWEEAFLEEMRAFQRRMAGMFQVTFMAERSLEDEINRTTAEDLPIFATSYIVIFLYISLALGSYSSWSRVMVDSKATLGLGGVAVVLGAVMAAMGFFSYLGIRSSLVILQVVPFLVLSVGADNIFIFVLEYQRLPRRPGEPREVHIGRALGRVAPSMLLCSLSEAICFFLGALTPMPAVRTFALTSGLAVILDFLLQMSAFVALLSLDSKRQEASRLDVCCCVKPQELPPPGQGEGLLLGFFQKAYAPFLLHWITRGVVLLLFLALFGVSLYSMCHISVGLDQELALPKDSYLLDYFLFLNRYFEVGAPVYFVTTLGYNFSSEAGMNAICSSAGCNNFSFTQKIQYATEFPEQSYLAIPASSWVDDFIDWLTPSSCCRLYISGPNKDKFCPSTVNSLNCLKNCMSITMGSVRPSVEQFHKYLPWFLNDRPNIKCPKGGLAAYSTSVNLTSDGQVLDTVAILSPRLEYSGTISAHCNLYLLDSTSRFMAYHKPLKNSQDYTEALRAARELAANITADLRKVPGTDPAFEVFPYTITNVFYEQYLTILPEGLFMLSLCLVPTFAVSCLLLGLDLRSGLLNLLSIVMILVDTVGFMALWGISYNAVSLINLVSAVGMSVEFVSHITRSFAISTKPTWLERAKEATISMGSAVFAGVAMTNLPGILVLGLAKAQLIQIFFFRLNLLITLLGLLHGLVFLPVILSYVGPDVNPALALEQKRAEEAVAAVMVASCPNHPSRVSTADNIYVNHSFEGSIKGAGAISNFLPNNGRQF
Assay type: binding
Description: NPC1L1 is currently considered to be the key protein for cholesterol absorption. It is impossible to evaluate the activity of targeting compounds on NPC1L1 through colorimetry assay due to NPC1L1′s lack of catalytic activity. The experiment was carried out under fixed concentration at 10 μM with ezetimibe as a positive control. Excess reactive esters on the sensor chip surface were blocked with 1 M ethanolamine (pH 8.5) for 7 min. The flow cell used for reference was activated and blocked as described above but remained uncoupled. Binding is typically reported in response units (RUs), which is defined as the response obtained from the flow cell containing the immobilized receptor minus the response obtained from the reference flow cell. CM5 series sensor chips and coupling reagents EDC and NHS were purchased from GE. The surface of the flow cell was activated for 7 min using a 1:1 mixture of 100 mM EDC and 100 mM NHS at a flow rate of 10 μL/mi. Subsequently, the corresponding proteins were injected over the surface for 7 min using the time and flow method (final immobilization level: 15,000 RU). Excess reactive esters on the sensor chip surface were blocked with 1 M ethanolamine (pH 8.5) for 7 min. The ability of compounds to combine with NPC1L1 protein was determined by the response value.

Structure (SMILES) | binding ability with NPC1L1 (SPR response)
CC(=O)OCC(C)C1=C(c2c[nH]c3ccccc23)C2C(C)CC(O)C3(C)C(C)CCC(O)C23CC1 (stereo not drawn) [Compound 1, 26-dihydroxyaflavininyl acetate] | could bind well with NPC1L1; also recorded: comparable binding ability with NPC1L1
C=C(C)C1CCC23[C@H](C1c1c[nH]c4ccccc14)[C@H](C)C[C@@H](O)[C@@]2(C)[C@H](C)CC[C@@H]3O (stereo partly drawn) [Compound 4, 14-eoi-14-hydroxy10,23-dihydro-24,25-dehydroaflavinine] | could bind well with NPC1L1; also recorded: comparable binding ability with NPC1L1
CC(C)C1=C(c2c[nH]c3ccccc23)[C@@H]2[C@H](C)CC[C@@]3(C)[C@H](C)CC[C@H](O)C23CC1 (stereo partly drawn) [Compound 6, aflavinine] | could bind well with NPC1L1; also recorded: stronger than that of ezetimibe; also recorded: stronger binding ability with NPC1L1 than ezetimibe
